The values that follow come from patent US8889881B2, “Compound having skin-whitening, anti-oxidizing and PPAR activities and medical use therefor” (Pusan National University Industry —University Cooperation …, priority 2011, dated 2014).

“Also recorded” adds a separate entry of the source.

One data set deals with T1, PPAR gamma-LBD (Homo sapiens, UniProt P37231).
T1 sequence (P37231 238-503 limits assumed): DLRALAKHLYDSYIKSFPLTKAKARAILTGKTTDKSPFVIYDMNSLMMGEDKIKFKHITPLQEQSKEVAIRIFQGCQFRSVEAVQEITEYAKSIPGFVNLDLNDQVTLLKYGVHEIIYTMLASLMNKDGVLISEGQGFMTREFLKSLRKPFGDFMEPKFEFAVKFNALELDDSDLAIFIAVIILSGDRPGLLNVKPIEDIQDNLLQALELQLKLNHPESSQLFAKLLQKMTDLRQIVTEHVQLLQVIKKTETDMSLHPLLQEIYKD
The experiment in a line: PPAR assay, PPARγ. It is filed as binding. To be noted: sample final concentration 100 μM; positive control rosiglitazone; FIGS. 7 and 8.
For the compound `CCOc1cc(-c2nc3ccccc3s2)ccc1O` [Compound 17, 4-(benzo[d]thiazol-2-yl)-2-ethoxyphenol], the “PPARγ activation (competitive activation rate), compared with rosiglitazone” value (shortened to “PPARγ activation … compared with rosiglitazone”) is given as “very excellent PPARγ activation agent compared to rosiglitazone”. `Oc1ccc(-c2nc3ccccc3s2)cc1Br` [Compound 26, 4-(benzo[d]thiazol-2-yl)-2-bromophenol]: the “PPARγ activation … compared with rosiglitazone” value was “the most excellent PPARγ activation agent; also recorded: very excellent PPARγ activation agent compared to rosiglitazone”. On to `CC(C)(Oc1ccc(-c2nc3ccccc3s2)cc1)C(=O)O` [Compound 97, 2-(4-(benzo[d]thiazol-2-yl)phenoxy)-2-methylpropanoic acid], for which the “PPARγ activation … compared with rosiglitazone” value is on record as “very excellent PPARγ activation agent compared to rosiglitazone”. For `Oc1ccc(-c2nc3ccccc3[nH]2)cc1Br` [Compound 56, 4-(1H-benzo[d]imidazol-2-yl)-2-bromophenol], the “PPARγ activation … compared with rosiglitazone” value was “very excellent PPARγ activation agent compared to rosiglitazone”.

Test system in another data set: not given
Assay: not given
Settings: not given
With `COc1ccc(C2N[C@H](C(=O)O)CS2)cc1OC` (mixture of isomers) [Compound 8, (2R/S,4R)-2-(3,4-dimethoxyphenyl)thiazolidine-4-carboxylic acid], the melting point (as a rule, the temperature, or range, at which the solid turns liquid) was 173.6 to 175.4 °C. Take `CCOc1cc(C2N[C@H](C(=O)O)CS2)ccc1O` (mixture of isomers) [Compound 5, (2R/S,4R)-2-(3-ethoxy-4-hydroxyphenyl)thiazolidine-4-carboxylic acid]: the melting point was 174.3 to 175.9 °C. The compound `COc1cc(-c2nc3cc(C(=O)O)ccc3[nH]2)cc(OC)c1O` [Compound 68, 2-(4-hydroxy-3,5-dimethoxyphenyl)-1H-benzo[d]imidazole-5-carboxylic acid] came in with a melting point of 280 to 281.4 °C. Same read-out and setting: with `Oc1ccccc1-c1nc2cc(C(F)(F)F)ccc2s1` [Compound 38, 2-(5-(trifluoromethyl)benzo[d]thiazol-2-yl)phenol] the figure was 175 to 176.5 °C; with `COc1ccc(-c2nc3cc(Cl)ccc3s2)cc1OC` [Compound 89, 5-chloro-2-(3,4-dimethoxyphenyl)benzo[d]thiazole], 165.2 to 167.1 °C; with `COc1cc(-c2nc3cc(Cl)ccc3s2)cc(OC)c1OC` [Compound 93, 5-chloro-2-(3,4,5-trimethoxyphenyl)benzo[d]thiazole], 159.4 to 160 °C.

`Oc1ccc(-c2nc3cc(Cl)ccc3s2)c(O)c1` [Compound 84, 4-(5-chlorobenzo[d]thiazol-2-yl)benzene-1,3-diol] yielded a melting point of 277.9 to 280.1 °C. Still for that read-out and setting: the same measure for `c1ccc(COc2ccc(-c3nc4ccccc4s3)cc2)cc1` [Compound 107, 2-(4-(benzyloxy)phenyl)benzo[d]thiazole]: 166.1 to 167.2 °C.

For `FC(F)(F)c1ccc2sc(-c3cccc(OCc4ccccc4)c3)nc2c1` [Compound 111, 2-(3-(Benzyloxy)phenyl)-5-(trifluoromethyl)benzo[d]thiazole], the melting point fell in the range of 93.8 to 95.1 °C. In the case of `COc1ccc(-c2nc3cc(C(=O)O)ccc3[nH]2)cc1O` [Compound 62, 2-(3-hydroxy-4-methoxyphenyl)-1H-benzo[d]imidazole-5-carboxylic acid], the melting point fell in the range of 246.6 to 247.7 °C. In turn, `COc1cc(C2N[C@H](C(=O)O)CS2)cc(OC)c1OC` (mixture of isomers) [Compound 11, (2R/S,4R)-2-(3,4,5-trimethoxyphenyl)thiazolidine-4-carboxylic acid] had a melting point of 197 to 199.7 °C. The same measure, in the same setting: with `Oc1cc(O)cc(-c2nc3ccccc3s2)c1` [Compound 21, 5-(benzo[d]thiazol-2-yl)benzene-1,3-diol] the figure was 274.5 to 276.5 °C. `FC(F)(F)c1ccc2sc(-c3ccc(OCc4ccccc4)cc3)nc2c1` [Compound 108, 2-(4-(benzyloxy)phenyl)-5-(trifluoromethyl)benzo[d]thiazole] gave a melting point of 194.3 to 195.1 °C. Compound `O=C(O)[C@@H]1CSC(c2ccc(O)cc2)N1` (mixture of isomers) [Compound 1, (2R/S,4R)-2-(4-hydroxyphenyl)thiazolidine-4-carboxylic acid] gave a melting point of 161.8 to 164.4 °C. In turn, `Oc1cc(O)cc(-c2nc3cc(C(F)(F)F)ccc3s2)c1` [Compound 36, 5-(5-(trifluoromethyl)benzo[d]thiazol-2-yl)benzene-1,3-diol] gave a melting point of 256.7 to 260.6 °C. On the same count and under the same terms, the same measure for `Clc1ccc2sc(-c3ccc(OCc4ccccc4)cc3)nc2c1` [Compound 109, 2-(4-(benzyloxy)phenyl)-5-chlorobenzo[d]thiazole]: 142.7 to 143.3 °C; for `Oc1ccccc1-c1nc2cc(Cl)ccc2s1` [Compound 92, 2-(5-chlorobenzo[d]thiazol-2-yl)phenol]: 194.2 to 195.7 °C; for `COc1ccc(-c2nc3cc(C(F)(F)F)ccc3s2)c(OC)c1` [Compound 37, 2-(2,4-dimethoxyphenyl)-5-(trifluoromethyl)benzo[d]thiazole]: 140.4 to 141.6 °C. On the same count and under the same terms, with `COc1ccc(-c2nc3cc(Cl)ccc3s2)c(OC)c1` [Compound 91, 5-chloro-2-(2,4-dimethoxyphenyl)benzo[d]thiazole] the figure was 138.6 to 140.3 °C; with `COc1cc(C2N[C@H](C(=O)O)CS2)cc(OC)c1O` (mixture of isomers) [Compound 12, (2R/S,4R)-2-(4-hydroxy-3,5-dimethoxyphenyl)thiazolidine-4-carboxylic acid], 139.6 to 141 °C. `COc1ccc(-c2nc3cc(C(F)(F)F)ccc3s2)cc1O` [Compound 33, 2-methoxy-5-(5-(trifluoromethyl)benzo[d]thiazol-2-yl)phenol] came in with a melting point of 142.1 to 144.5 °C. Still for that read-out and setting: the same measure for `COc1cc(-c2nc3cc(C(F)(F)F)ccc3s2)cc(OC)c1OC` [Compound 39, 5-(trifluoromethyl)-2-(3,4,5-trimethoxyphenyl)benzo[d]thiazole]: 132.5 to 134 °C; for `COc1cc(-c2nc3ccccc3[nH]2)cc(OC)c1OC` [Compound 54, 2-(3,4,5-trimethoxyphenyl)-1H-benzo[d]imidazole]: 257 to 257.7 °C; for `CCOc1cc(-c2nc3cc(C(=O)O)ccc3[nH]2)ccc1O` [Compound 61, 2-(3-ethoxy-4-hydroxyphenyl)-1H-benzo[d]imidazole-5-carboxylic acid]: more than 300 °C.

`COc1ccc(-c2nc3ccccc3s2)c(OC)c1` [Compound 22, 2-(2,4-dimethoxyphenyl)benzo[d]thiazole] displayed a melting point of 137.4 to 138.9 °C.

`Oc1cc(O)cc(-c2nc3cc(Cl)ccc3s2)c1` [Compound 90, 5-(5-chlorobenzo[d]thiazol-2-yl)benzene-1,3-diol] registered a melting point of 129.6 to 130.6 °C.

The compound `COc1ccc(-c2nc3cc(Cl)ccc3s2)cc1O` [Compound 87, 5-(5-chlorobenzo[d]thiazol-2-yl)-2-methoxyphenol] had a melting point of 158.2 to 158.6 °C. Regarding `COc1ccc(-c2nc3cc(C(F)(F)F)ccc3s2)cc1OC` [Compound 35, 2-(3,4-dimethoxyphenyl)-5-(trifluoromethyl)benzo[d]thiazole], the melting point was in the range of 120.4 to 121.6 °C. The compound `COc1cc(-c2nc3cc(C(=O)O)ccc3[nH]2)ccc1O` [Compound 60, 2-(4-hydroxy-3-methoxyphenyl)-1H-benzo[d]imidazole-5-carboxylic acid] had a melting point of more than 300 °C. Still for that read-out and setting: the same measure for `O=C(O)c1ccc2[nH]c(-c3ccc(O)cc3)nc2c1` [Compound 57, 2-(4-hydroxyphenyl)-1H-benzo[d]imidazole-5-carboxylic acid]: more than 300 °C; for `c1ccc(COc2cccc(-c3nc4ccccc4s3)c2)cc1` [Compound 110, 2-(3-(benzyloxy)phenyl)benzo[d]thiazole]: 121.5 to 122.1 °C.

For a further data set, the target named is T2, PPAR alpha-LBD (Homo sapiens, UniProt Q07869).
T2 sequence (Q07869 239-466 limits assumed): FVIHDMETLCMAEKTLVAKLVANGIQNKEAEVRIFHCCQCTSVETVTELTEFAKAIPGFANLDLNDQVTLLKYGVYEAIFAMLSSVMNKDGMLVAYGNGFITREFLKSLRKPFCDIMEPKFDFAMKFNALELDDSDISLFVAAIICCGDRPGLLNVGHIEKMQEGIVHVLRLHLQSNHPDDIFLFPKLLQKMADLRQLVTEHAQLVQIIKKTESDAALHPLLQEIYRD
Description: PPAR assay, PPARα. Conditions: sample final concentration 100 μM; positive control fenofibrate; FIGS. 5 and 6.
On to `CCOc1cc(-c2nc3ccccc3s2)ccc1O` [Compound 17, 4-(benzo[d]thiazol-2-yl)-2-ethoxyphenol], for which the “PPARα activation (competitive activation rate), compared with fenofibrate” value (“PPARα activation … compared with fenofibrate” below) was “very excellent PPARα activation agent compared to fenofibrate”. With `Oc1ccc(-c2nc3ccccc3s2)cc1Br` [Compound 26, 4-(benzo[d]thiazol-2-yl)-2-bromophenol], the “PPARα activation … compared with fenofibrate” value was “the most excellent PPARα activation agent; also recorded: very excellent PPARα activation agent compared to fenofibrate”. On the same count and under the same terms, with `CC(C)(Oc1ccc(-c2nc3ccccc3s2)cc1)C(=O)O` [Compound 97, 2-(4-(benzo[d]thiazol-2-yl)phenoxy)-2-methylpropanoic acid] the entry was “very excellent PPARα activation agent compared to fenofibrate”.

Regarding `c1ccc(COc2ccc(-c3nc4ccccc4[nH]3)cc2)cc1` [Compound 114, 2-(4-(benzyloxy)phenyl)-1H-benzo[d]imidazole], the “PPARα activation … compared with fenofibrate” value is recorded as “very excellent PPARα activation agent compared to fenofibrate”.

Still in this data set, the particulars now being: summary of the PPARα and PPARγ assays; sample 100 μM.
Consider `CCOc1cc(-c2nc3ccccc3s2)ccc1O` [Compound 17, 4-(benzo[d]thiazol-2-yl)-2-ethoxyphenol], for which the “simultaneous activation of PPARα and PPARγ” value (from here on “simultaneous activation”) is “simultaneously activates PPARα and PPARγ”.

On to `Oc1ccc(-c2nc3ccccc3s2)cc1Br` [Compound 26, 4-(benzo[d]thiazol-2-yl)-2-bromophenol], for which the “simultaneous activation” value is “simultaneously activates PPARα and PPARγ”.

Turning to `CC(C)(Oc1ccc(-c2nc3ccccc3s2)cc1)C(=O)O` [Compound 97, 2-(4-(benzo[d]thiazol-2-yl)phenoxy)-2-methylpropanoic acid], the “simultaneous activation” value is “simultaneously activates PPARα and PPARγ”.
